Patent publication US9834548B2, “Pyridazine compounds as JAK inhibitors” (Portola Pharmaceuticals, Inc., priority 2014, dated 2017)
Like-named read-outs stand apart in the source and are kept apart here.

Key:
JAK1 = JAK1 (Homo sapiens (Human), UniProt P23458); assay: Purified kinase assay (Z'-LYTE), JAK1; format: biochemical
Summary of the method: (§1)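 Catalytic-domain recombinant kinase with Tyr6 peptide (a separate Tyr6 kit for TYK2) and ATP, 1% DMSO final, reacted 1 h at room temperature. Z′-LYTE FRET read after 1 h protease development (ex 400, em 445/520 nm). Inhibition computed from percent substrate phosphorylation versus no inhibitor; IC50 from 4-parameter logistic fit.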

JAK2 = JAK2 (Homo sapiens (Human), UniProt O60674); assay: Purified kinase assay (Z'-LYTE), JAK2; format: biochemical
JAK2, sequence (O60674 849-1124): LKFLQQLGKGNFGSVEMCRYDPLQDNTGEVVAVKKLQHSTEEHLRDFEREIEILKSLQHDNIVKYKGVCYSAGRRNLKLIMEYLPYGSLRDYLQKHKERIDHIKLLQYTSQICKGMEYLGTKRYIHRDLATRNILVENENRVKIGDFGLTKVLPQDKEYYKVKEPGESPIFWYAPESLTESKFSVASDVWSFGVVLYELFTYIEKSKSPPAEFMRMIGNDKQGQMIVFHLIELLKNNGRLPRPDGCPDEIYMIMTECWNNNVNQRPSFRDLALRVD
Summary of the method: as §1

JAK3 = JAK3 (Homo sapiens (Human), UniProt P52333); assay: Purified kinase assay (Z'-LYTE), JAK3; format: biochemical
JAK3, sequence (P52333 822-1111): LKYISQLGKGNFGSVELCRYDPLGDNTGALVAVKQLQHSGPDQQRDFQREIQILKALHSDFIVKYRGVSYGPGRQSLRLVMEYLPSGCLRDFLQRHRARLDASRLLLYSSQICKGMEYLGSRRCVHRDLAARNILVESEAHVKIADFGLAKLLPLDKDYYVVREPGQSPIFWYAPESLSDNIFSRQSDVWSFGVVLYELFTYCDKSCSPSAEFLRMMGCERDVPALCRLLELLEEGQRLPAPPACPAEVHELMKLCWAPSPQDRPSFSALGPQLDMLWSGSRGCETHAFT
Summary of the method: as §1

TYK2 = TYK2 (Homo sapiens (Human), UniProt P29597); assay: Purified kinase assay (Z'-LYTE), TYK2; format: biochemical
TYK2, sequence (P29597 897-1176): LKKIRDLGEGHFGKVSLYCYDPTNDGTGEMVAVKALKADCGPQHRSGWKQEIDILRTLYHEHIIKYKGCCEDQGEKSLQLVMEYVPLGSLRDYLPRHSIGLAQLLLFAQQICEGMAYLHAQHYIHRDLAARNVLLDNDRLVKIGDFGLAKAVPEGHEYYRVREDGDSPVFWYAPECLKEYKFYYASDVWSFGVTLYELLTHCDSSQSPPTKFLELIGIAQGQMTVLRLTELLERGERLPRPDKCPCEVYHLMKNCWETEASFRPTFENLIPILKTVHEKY
Procedure: JAK and TYK2 tyrosine phosphorylation activity is measured using the Z′-LYTE™ Technology developed by Invitrogen Corporation (Carlsbad, Calif.). For JAK1, JAK2 and JAK3 the Z′-LYTE™ Kinase Assay Kit-Tyr6 Peptide (part number PV4122) was used. For TYK2 the Z′-LYTE™ Kinase Assay Kit-Tyr6 Peptide (part number PV3192) was used. The Z′-LYTE™ biochemical assay employs a fluorescence resonance energy transfer (FRET) coupled-enzyme format and is based on the differential sensitivity of phosphorylated and non-phosphorylated peptides to proteolytic cleavage. The assay uses a synthetic peptide substrate that is labeled with a donor fluorophore (coumarin) and an acceptor fluorophore (fluorescein) that make up a FRET pair. In the primary reaction (the Kinase Reaction), the kinase transfers the γ-phosphate of ATP to a single tyrosine residue on the substrate, while the presence of a kinase inhibitor in the primary reaction suppresses phosphorylation. In the secondary reaction (the Development Reaction), a site-specific protease (the Development Reagent) is added. The development buffer quenches the Kinase Reaction, while the protease recognizes and cleaves non-phosphorylated Z′-LYTE™ peptide substrate. Cleavage disrupts FRET between the donor and acceptor fluorophores on the non-phosphorylated substrate, while uncleaved, phosphorylated substrate maintains FRET.
To test the ability of candidate molecules to inhibit JAK tyrosine phosphorylation activity, molecules are reconstituted in 100% DMSO and serially diluted 1:10 in polypropylene v-bottom microtiter plates. The candidate molecules are then diluted 1:25 into kinase buffer and 2.5 μl transferred into duplicate wells of a 384 well low volume black microtiter assay plate (Corning, USA). The final DMSO concentration in the assay is 1%. The kinase reaction contains 2.5 μl of a candidate molecule, 5 μl of catalytic domain recombinant Kinase enzyme+Tyr peptide substrate (Invitrogen, CA) and ATP (Invitrogen, CA). The kinase reaction is allowed to proceed for 1 hour at room temperature. The protease reaction is initiated by the addition of Development Reagent (Invitrogen, CA). After 1 hour incubation at room temperature the fluorescence is measured using a FlexStation plate reader (Molecular Devices, Sunnyvale, Calif.). The reader settings used are as follows: Fluorescence mode, endpoint, top read, excitation 400 nm, emission 445 nm and 520 nm, Auto Cutoff 435 nm and 515 nm, PMT sensitivity high, 6 reads per well Inhibition of JAK activity is calculated as the percent phosphorylation of substrate in the presence of inhibitor compared to the percent phosphorylation of substrate in the absence of inhibitor. IC50's were derived using Xlfit 4.3 (IDBS, UK), 4 parameter logistic model 205: Y=(A+((B−A)/(1+((C/x)^D)))).

[1] = test system: JAK3/JAK1 (IL2-STAT5 in PBMC); assay: Intracellular STAT5 phosphorylation following IL2 stimulation of PBMC (JAK3/JAK1 cellular assay); format: cell-based; conditions: Homo sapiens, read-out: IL2-STAT5 percent inhibition of STAT phosphorylation
Procedure: Human whole blood was collected into lithium heparin vacutainer tubes from the antecubital vein of human subjects. Peripheral blood mononuclear cells (PBMC) were prepared by layering 10 ml anti-coagulated blood over 5 ml lymphoprep in a 15 ml conical tube and centrifugation for 20 minutes at 400×g in a swinging bucket rotor. The lymphocyte layer was removed, washed twice in tissue culture media (RPMI containing 10% fetal bovine serum) prior to re-suspension in the same media at 2×10^6 cells/ml. 100 μl aliquots of PMBCs were incubated for 1 h at 37° C. with various concentrations of JAK inhibitors prior to stimulation for 15 minutes with 1.5 ng/ml of IL2 or IL4. The reaction was terminated by the addition of 60 μl 16% paraformaldehyde, followed by incubation at room temperature for 10 minutes. Fixed cells were washed twice in PBS, and then re-suspended in −20° C. 50% methanol diluted in PBS and stored at 4° C. overnight. Following permeabilization of the cell membrane in methanol, cells were washed twice in PBS containing 1% BSA and PBMCs were re-suspended in the same buffer containing CD3 and STAT5 Y694 specific antibodies (IL2 stimulations) or CD3, CD14, CD19, and STAT6 Y641 specific antibodies (IL4 stimulations) for 1 hour at room temperature. Cells were then washed and re-suspended in PBS/BSA buffer and assessed by flow cytometry (LSRII; BD Biosciences) for effect of JAK inhibitors on cytokine mediated STAT phosphorylation.
(§2) Percent inhibition of STAT phosphorylation in the cellular assays is provided for the compounds at the given concentrations.

[2] = test system: JAK2 (GM-CSF-induced pSTAT5 in TF1 cells); assay: GMCSF-induced pSTAT5 formation in TF1 (JAK2 cellular assay); format: cell-based; conditions: Homo sapiens, TF-1, read-out: TF1/GM-CSF percent inhibition of STAT phosphorylation
Procedure: 100 μl aliquots of TFI (2.5×10^6/ml) cells were pre-treated with various concentrations JAK inhibitors (0.04 to 5 μM, including 0.2 μM and 1 μM) for 1 hour at 37° C. Cells were then stimulated with 2 ng/ml GM-CSF for 10 minutes at 37° C. The reaction was terminated by the addition of 60 μl 16% paraformaldehyde followed by incubation for 10 minutes at room temperature. Cells were washed twice (centrifugation 5 minutes room temperature at 385×g) in PBS followed by re-suspension in −20° C. 50% methanol in PBS and storage at 4° C. overnight. The following day, cells were washed in PBS/BSA and re-suspended in the same buffer containing STAT5 Y694 specific antibody. Following incubation with antibodies, cells were washed and analyzed by flow cytometry (BD Biosciences; FACS Calibur). The gate was set on live cells in the SSC-FSC plot and 10,000 events were collected.
as §2

JAK1, sequence (P23458 875-1153): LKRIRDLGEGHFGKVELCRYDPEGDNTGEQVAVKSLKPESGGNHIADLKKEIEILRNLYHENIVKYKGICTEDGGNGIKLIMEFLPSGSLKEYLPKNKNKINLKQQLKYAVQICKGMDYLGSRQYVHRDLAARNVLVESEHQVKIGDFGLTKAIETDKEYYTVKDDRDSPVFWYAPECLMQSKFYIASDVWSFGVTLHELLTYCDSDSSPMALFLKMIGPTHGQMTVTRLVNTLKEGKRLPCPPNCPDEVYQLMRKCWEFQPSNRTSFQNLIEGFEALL

| IC50 (JAK1; Table 1, read-out: JAK1 IC50) [µM] | IC50 (JAK1; Table 2, read-out: JAK1) [µM] | IC50 (JAK2; Table 1, read-out: JAK2 IC50) [µM] | IC50 (JAK2; Table 2, read-out: JAK2) [µM] | IC50 (JAK3; Table 1, read-out: JAK3 IC50) [µM] | IC50 (JAK3; Table 2, read-out: JAK3) [µM] | IC50 (TYK2; Table 1, read-out: Tyk2 IC50) [µM] | IC50 (TYK2; Table 2, read-out: TYK2) [µM] | Compound | inhibition at 0.2 µM [1] [%] | inhibition at 1 µM [1] [%] | inhibition at 0.1 µM [2] [%] | inhibition at 1 µM [2] [%] |
| --- | --- | --- | --- | --- | --- | --- | --- | --- | --- | --- | --- | --- |
| 0.1 to 1 | 0.1 to 1 | 0.01 to 0.1 | 0.01 to 0.1 | 0.001 to 0.01 | 0.001 to 0.01 | 0.01 to 0.1 | 0.01 to 0.1 | CCC(=O)N1CCN(c2ccc(Nc3cc(NCc4c(F)cccc4F)c(C(N)=O)nn3)cc2)CC1 [Compound 33] | 31 | 53 | 0 | 17 |
| 0.1 to 1 | > 1 | 0.1 to 1 | 0.1 to 1 | 0.001 to 0.01 | 0.001 to 0.01 | 0.1 to 1 | 0.1 to 1 | CC(=O)N1CCN(c2ccc(Nc3cc(NCc4ccccc4F)c(C(N)=O)nn3)cc2)CC1 [Compound 18, 6-((4-(4-acetylpiperazin-1-yl)phenyl)amino)-4-((2-fluorobenzyl)amino)pyridazine-3-carboxamide] |  |  |  |  |
| > 1 |  | 0.1 to 1 |  | 0.01 to 0.1 |  | 0.1 to 1 |  | CC(=O)Nc1cccc(Nc2cc(NCc3cccc(F)c3)c(C(N)=O)nn2)c1 [Compound 65] |  |  |  |  |
| 0.1 to 1 |  | 0.01 to 0.1 |  | 0.001 to 0.01 |  | 0.1 to 1 |  | Cc1cc(Nc2cc(NCc3cccc(F)c3F)c(C(N)=O)nn2)ccc1C(=O)N1CCCC1 [Compound 42] |  |  |  |  |
| 0.01 to 0.1 | 0.01 to 0.1 | 0.01 to 0.1 | 0.01 to 0.1 | < 0.001 | 0.001 to 0.01 |  |  | CC(=O)N1CCN(c2ccc(Nc3cc(NCc4cccc5[nH]ccc45)c(C(N)=O)nn3)cc2)CC1 [Compound 109] | 69 | 95 |  |  |

Continued, compound first:

| Compound | IC50 (JAK1; Table 1, read-out: JAK1 IC50) [µM] | IC50 (JAK1; Table 2, read-out: JAK1) [µM] | IC50 (JAK2; Table 1, read-out: JAK2 IC50) [µM] | IC50 (JAK2; Table 2, read-out: JAK2) [µM] | IC50 (JAK3; Table 1, read-out: JAK3 IC50) [µM] | IC50 (JAK3; Table 2, read-out: JAK3) [µM] | IC50 (TYK2; Table 1, read-out: Tyk2 IC50) [µM] | IC50 (TYK2; Table 2, read-out: TYK2) [µM] | inhibition at 0.2 µM [1] [%] | inhibition at 1 µM [1] [%] | inhibition at 0.1 µM [2] [%] | inhibition at 1 µM [2] [%] |
| --- | --- | --- | --- | --- | --- | --- | --- | --- | --- | --- | --- | --- |
| CC(=O)N1CCN(c2ccc(Nc3cc(NCc4cc(F)cc(F)c4)c(C(N)=O)nn3)cc2)CC1 [Compound 20] | 0.1 to 1 | > 1 | 0.01 to 0.1 | 0.1 to 1 | 0.001 to 0.01 | 0.001 to 0.01 | 0.1 to 1 | 0.1 to 1 | 32 | 60 | 3 | 2 |
| CN(C)C(=O)c1ccc(Nc2cc(NCc3cccc(F)c3)c(C(N)=O)nn2)cc1 [Compound 59] | > 1 |  | 0.1 to 1 |  | 0.01 to 0.1 |  | > 1 |  |  |  |  |  |
| Cn1cc(Nc2cc(NCc3cccc(F)c3)c(C(N)=O)nn2)cn1 [Compound 66] | > 1 |  | 0.1 to 1 |  | 0.01 to 0.1 |  | > 1 |  |  |  |  |  |
| Cc1cc(Nc2cc(NCc3cccc(F)c3)c(C(N)=O)nn2)ccc1C(=O)N(C)C [Compound 60] | > 1 |  | 0.1 to 1 |  | 0.01 to 0.1 |  | > 1 |  |  |  |  |  |
| CC(=O)N1CCN(c2ccc(Nc3cc(NC4(c5ccccc5)CC4)c(C(N)=O)nn3)cc2)CC1 [Compound 57] | > 1 |  | > 1 |  | 0.01 to 0.1 |  | > 1 |  |  |  |  |  |
| CC(=O)N1CCN(c2ccc(Nc3cc(NCc4cccc5ccsc45)c(C(N)=O)nn3)cc2)CC1 [Compound 98] | 0.1 to 1 | > 1 | 0.01 to 0.1 | 0.01 to 0.1 | 0.001 to 0.01 | 0.001 to 0.01 | > 1 | > 1 | 13 | 64 |  |  |
| CC(=O)N1CCN(c2ccc(Nc3cc(NCc4cccs4)c(C(N)=O)nn3)cc2)CC1 [Compound 21] | > 1 |  | 0.1 to 1 |  | 0.01 to 0.1 |  | 0.1 to 1 |  |  |  |  |  |
| Cc1cc(Nc2cc(NCc3cccc(F)c3)c(C(N)=O)nn2)ccc1C(=O)N1CCCC1 [Compound 61] | > 1 |  | 0.01 to 0.1 |  | 0.001 to 0.01 |  | 0.1 to 1 |  |  |  |  |  |
| CC(=O)N1CCN(c2ccc(Nc3cc(NCc4ccccc4C)c(C(N)=O)nn3)cc2)CC1 [Compound 23] | 0.1 to 1 |  | 0.1 to 1 |  | 0.001 to 0.01 |  | 0.1 to 1 |  |  |  |  |  |
| CCC(=O)N1CCN(c2ccc(Nc3cc(NCc4ccccc4F)c(C(N)=O)nn3)cc2)CC1 [Compound 29] | > 1 |  | 0.1 to 1 |  | 0.01 to 0.1 |  | 0.1 to 1 |  |  |  |  |  |
| CC(=O)N1CCN(c2ccc(Nc3cc(NCc4ccccc4)c(C(N)=O)nn3)cc2)CC1 [Compound 5, 6-((4-(4-acetylpiperazin-1-yl)phenyl)amino)-4-(benzylamino)-pyridazine-3-carboxamide] | > 1 |  | 0.1 to 1 |  | 0.01 to 0.1 |  | 0.1 to 1 |  |  |  |  |  |
